Reference: patent US11938123B2, “Use of 2,3,5-substituted thiophene compound to prevent, ameliorate, or treat breast cancers” (Pharos iBio Co., Ltd., priority 2018, dated 2024)
Blank lines part the entries; values can stand above or below the compound they belong to.

What was measured:
[1] = Mouse body weight change in MDA-MB-468 tumor model (Example 5); assay type: in vivo, NOD SCID female mice; conditions: MDA-MB-468 tumor mice; olaparib 50 mg/kg/day, PHI-101 60 mg/kg/day; 28 days; FIG. 14
Protocol: (§1) As mice, 6-8-week-old NOD SCID female mice (18 to 22 g) (GemPharmatech Co., Ltd) were prepared. The mice were quarantined for 7 days before use in the experiment, and mice with abnormal health were excluded from the experiment. The mice were housed in cages (300×180×150 mm) at 22±3° C. and a relative humidity of 40% to 70% under a 12-hour light/12-hour dark cycle. During the entire experimental period except for the period specified by the protocol, the mice were allowed to freely access sterilized dry granular food (Beijing Keaoxieli Feed Co., Ltd., Beijing, China) and water.
(§2) For tumor induction, MDA-MB-468 breast cancer cells (1×10^7) in 0.1 ml of a mixture (1:1) of L-15 and Matrigel (BD, cat. No. 356234) were injected subcutaneously into the right flank of each mouse. […] Then, five mice were allocated for each group so that the average tumor volume was the same between the groups at the time point of treatment.
The body weight of each mouse was measured twice a week, and the change (%) in body weight (BW) was calculated using the following equation. BW change (%)=(BWPG-Dx/BWPG-D1)×100
In order to evaluate whether PHI-101 and/or olaparib affected the body weight of each mouse, the change in the body weight of each mouse was analyzed according to Example 5-1-5.

[2] = system: HCC1937; assay: Breast cancer cell line viability, PHI-101 alone (Example 1); assay type: cell-based; conditions: Homo sapiens; HCC1937, triple-negative breast cancer; 72 hours; Celltiter-Glo
Protocol: (§3) Each of the breast cancer cell lines shown in Table 1 below was cultured with DMEM (Dulbecco's Modified Eagle Medium) or RPMI1640 in a 100-mm culture dish (SPL) under 5% CO2 at 37° C., and then diluted to a density of 3,000 cells/90 μl using PBS (phosphate-buffered saline) (Biosesang).
(§4) Next, 90 μl of each of the diluted breast cancer cell lines was treated with 10 μl of a 1:2 serial dilution of a hydrochloride salt of the compound represented by Formula 1 (hereinafter referred to as “PHI-101”) to a final concentration of up to 100 μM, and then cultured under 5% CO2 at 37° C. for 72 hours. After culture, the cells were counted using a Celltiter-Glo assay kit (Promega), and cell viability was measured by expressing the cell count as a percentage relative to that of a control group not treated with PHI-101.
(§5) The IC50 of PHI-101 for each breast cancer cell line was calculated by sigmoidal curve fitting using the PRIZM software, and the results of the calculation are shown in Table 2 below. It was confirmed that PHI-101 had excellent ability to inhibit the breast cancer cell lines, and that PHI-101 also had excellent ability to inhibit the triple-negative breast cancer cell lines (FIGS. 1 to 3).

[3] = system: MCF7; assay: as above; assay type: cell-based; conditions: Homo sapiens; MCF7, non-triple-negative breast cancer; 72 hours; Celltiter-Glo
Protocol: as §3, §4, §5

[4] = system: MDA-MB-435; assay: as above; assay type: cell-based; conditions: Homo sapiens; MDA-MB-435, triple-negative breast cancer; 72 hours; Celltiter-Glo
Protocol: as §3, §4, §5

[5] = system: SK-BR-3; assay: as above; assay type: cell-based; conditions: Homo sapiens; SK-BR-3, non-triple-negative breast cancer; 72 hours; Celltiter-Glo
Protocol: as §3, §4, §5

[6] = system: MDA-MB-231; assay: as above; assay type: cell-based; conditions: Homo sapiens; MDA-MB-231, triple-negative breast cancer; 72 hours; Celltiter-Glo
Protocol: as §3, §4, §5

[7] = system: T47D; assay: as above; assay type: cell-based; conditions: Homo sapiens, non-triple-negative breast cancer, 72 hours, Celltiter-Glo
Protocol: as §3, §4, §5

[8] = system: JIMT1; assay: as above; assay type: cell-based; conditions: Homo sapiens, JIMT-1; JIMT1, non-triple-negative breast cancer; 72 hours; Celltiter-Glo
Protocol: as §3, §4, §5

[9] = system: HS578T; assay: as above; assay type: cell-based; conditions: Homo sapiens, Hs-578T, triple-negative breast cancer, 72 hours, Celltiter-Glo
Protocol: as §3, §4, §5

[10] = system: ZR-75-1; assay: as above; assay type: cell-based; conditions: Homo sapiens; ZR-75-1, non-triple-negative breast cancer; 72 hours; Celltiter-Glo
Protocol: as §3, §4, §5

[11] = system: MDA-MB-468; assay: as above; assay type: cell-based; conditions: Homo sapiens; MDA-MB-468, triple-negative breast cancer; 72 hours; Celltiter-Glo
Protocol: as §3, §4, §5

[12] = system: BT549; assay: as above; assay type: cell-based; conditions: Homo sapiens, BT-549; BT549, triple-negative breast cancer; 72 hours; Celltiter-Glo
Protocol: as §3, §4, §5

[13] = system: BT474; assay: as above; assay type: cell-based; conditions: Homo sapiens, BT-474; BT474, non-triple-negative breast cancer; 72 hours; Celltiter-Glo
Protocol: as §3, §4, §5

[14] = system: JIMT-1; assay: Tumor inhibitory activity in mice with Herceptin-resistant JIMT-1 tumors (Example 6); assay type: in vivo, NOD SCID female mice; conditions: JIMT-1 tumors in mice; PHI-101 60 mg/kg/day vs Herceptin 5 mg/kg/day; 3 weeks; FIG. 16
Protocol: (§6) The Herceptin-resistant breast cancer cell line JIMT-1 was monolayer-cultured in an L-15 medium supplemented with 10% heat-inactivated fetal bovine serum under 5% CO2 at 37° C. The tumor cells were subcultured so as not to exceed passages 4 to 5 before confluence by trypsin-EDTA treatment. The tumor cells growing in an exponential growth phase were harvested and counted for tumor inoculation.
As mice, 7-8-week-old NOD SCID female mice (20 to 22 g) (GemPharmatech Co., Ltd.) were prepared. The mice were quarantined for 7 days before use in the experiment, and mice with abnormal health were excluded from the experiment. The mice were housed in cages (300×180×150 mm) at 22±3° C. and a relative humidity of 40% to 70% under a 12-hour light/12-hour dark cycle. […]
Measurement of the tumor volume was performed with calipers twice a week. The tumor volume (TV) (mm^3) was calculated using the following equation. […]
The tumor growth inhibition (TGI) rate was calculated according to the following equation using the tumor volume. […]
In order to evaluate whether PHI-101 has an effect on tumor inhibition in the mice, the volume and growth inhibition rate of the tumor generated by the breast cancer cell line JIMT-1 transplanted into the mice were analyzed by performing Example 6-1-5.

[15] = system: MDA-MB-468; assay: Tumor inhibitory activity in mice with MDA-MB-468 tumors (Example 5); assay type: in vivo, NOD SCID female mice; conditions: MDA-MB-468 tumors in mice; olaparib 50 mg/kg/day, PHI-101 60 mg/kg/day; treated 28 days
Protocol: as §6, with “The” for “The Herceptin-resistant”, “MDA-MB-468” for “JIMT-1”
as §1, §2
Measurement of the tumor volume was performed with calipers twice a week. The tumor volume (TV) (mm^3) was calculated using the following equation. TV=a×b^2/2
The tumor growth inhibition (TGI) rate was calculated according to the following equation using the tumor volume. TGI (%)=(1−T/C)×100
T=final tumor volume of experimental group/initial tumor volume of experimental group
C=final tumor volume of control group/initial tumor volume of control group
In order to evaluate whether PHI-101 and/or olaparib affects tumor inhibition in the mice, the volume and growth inhibition rate of the tumor generated by the breast cancer cell line MDA-MB-468 transplanted into the mice were analyzed according to Example 5-1-6.

[16] = system: MCF7; assay: Cell viability, PHI-101 alone or with cisplatin (Example 2); assay type: cell-based; conditions: Homo sapiens, medium instead of cisplatin, 72 hours
Protocol: (§7) Each of the breast cancer cell lines shown in Table 3 below was cultured using RPMI-1640 in a 100-mm culture dish, and then diluted to a density of 3,000 cells/90 μl using PBS.
(§8) Thereafter, 90 μl of each of the diluted breast cancer cell lines was treated with 10 μl of a 1:2 serial dilution of a hydrochloride salt of PHI-101 to a final concentration of up to 100 μM and cultured under 5% CO2 at 37° C. for 1 hour, and then treated with cisplatin at an IC50 concentration for each cell line. Groups treated with PHI-101 alone were additionally treated with 10 μl of medium instead of cisplatin. Next, each of the cell lines was cultured under 5% CO2 at 37° C. for 72 hours. Next, the cells were counted using a Celltiter-Glo assay kit (Promega), and cell viability was measured by expressing the cell count as a percentage relative to that of a control group not treated with PHI-101 and cisplatin.
(§9) IC50 for each breast cancer cell line was calculated by sigmoidal curve fitting using the PRIZM software, and the results of the calculation are shown in Table 4 below.

[17] = system: T47D; assay: as above; assay type: cell-based; conditions: Homo sapiens, medium instead of cisplatin, 72 hours
Protocol: as §7, §8, §9

[18] = system: ZR-75-1; assay: as above; assay type: cell-based; conditions: Homo sapiens, medium instead of cisplatin, 72 hours
Protocol: as §7, §8, §9

[19] = system: BT549; assay: as above; assay type: cell-based; conditions: Homo sapiens, BT-549; BT549 (triple-negative); medium instead of cisplatin; 72 hours
Protocol: as §7, §8, §9

[20] = system: BT474; assay: as above; assay type: cell-based; conditions: Homo sapiens, BT-474, medium instead of cisplatin, 72 hours
Protocol: as §7, §8, §9

[21] = system: MCF7; assay: Cell viability, olaparib alone or with PHI-101 (Example 3); assay type: cell-based; conditions: Homo sapiens, medium instead of PHI-101, 72 hours
Protocol: (§10) Each of the breast cancer cell lines shown in Table 5 below was cultured with DMEM (Dulbecco's Modified Eagle Medium) or RPMI1640 in a 100-mm culture dish (SPL), and then diluted to a density of 3,000 cells/90 μl using PBS (phosphate-buffered saline) (Biosesang).
(§11) Thereafter, 90 μl of each of the diluted breast cancer cell lines was treated with 10 μl of a 1:2 serial dilution of olaparib to a final concentration of up to 100 μM, and cultured under 5% CO2 at 37° C. for 1 hour. Then, each breast cancer cell line was treated with a hydrochloride salt of PHI-101 to a final concentration of 1 μM. Groups treated with olaparib alone were additionally treated with 10μ of medium instead of PHI-101. Thereafter, each cell line was cultured under 5% CO2 at 37° C. for 72 hours. Then, the cells were counted using a Celltiter-Glo assay kit (Promega), and cell viability was measured by expressing the cell count as a percentage relative to that of a control group not treated with PHI-101 and olaparib.
(§12) IC50 for each breast cancer cell line was calculated by sigmoidal curve fitting using the PRIZM software, and the results of the calculation are shown in Table 6 below.

[22] = system: SK-BR-3; assay: as above; assay type: cell-based; conditions: Homo sapiens, medium instead of PHI-101, 72 hours
Protocol: as §10, §11, §12

[23] = system: T47D; assay: as above; assay type: cell-based; conditions: Homo sapiens, medium instead of PHI-101, 72 hours
Protocol: as §10, §11, §12

[24] = system: JIMT1; assay: as above; assay type: cell-based; conditions: Homo sapiens, JIMT-1, medium instead of PHI-101, 72 hours
Protocol: as §10, §11, §12

[25] = system: HS578T; assay: as above; assay type: cell-based; conditions: Homo sapiens, Hs-578T; HS578T (triple-negative); medium instead of PHI-101; 72 hours
Protocol: as §10, §11, §12

[26] = system: ZR-75-1; assay: as above; assay type: cell-based; conditions: Homo sapiens, medium instead of PHI-101, 72 hours
Protocol: as §10, §11, §12

[27] = system: MDA-MB-468; assay: as above; assay type: cell-based; conditions: Homo sapiens; MDA-MB-468 (triple-negative); medium instead of PHI-101; 72 hours
Protocol: as §10, §11, §12

[28] = system: BT474; assay: as above; assay type: cell-based; conditions: Homo sapiens, BT-474, medium instead of PHI-101, 72 hours
Protocol: as §10, §11, §12

- IC50 [2]: 4.03 µM
- IC50 [3]: 3.71 µM
- IC50 [4]: 1.51 µM
- IC50 [5]: 4.11 µM
- IC50 [6]: 4.97 µM
- IC50 [7]: 17.8 µM
- IC50 [8]: 0.27 µM
- IC50 [9]: 1.8 µM
- IC50 [10]: 11.4 µM
- IC50 [11]: 3.74 µM
- IC50 [12]: 1.63 µM
- IC50 [13]: 14.7 µM
- IC50 [16]: 3.23 µM
- IC50 [17]: 19.2 µM
- IC50 [19]: 1.71 µM
- IC50 [20]: 14.3 µM
Structure (SMILES): NC(=O)Nc1cc(C#Cc2cccc(F)c2)sc1C(=O)N[C@H]1CCCNC1 [PHI-101, (S)-5-((3-fluorophenyl)ethynyl)-N-(piperidin-3-yl)-3-ureido thiophene-2-carboxamide]
- Change in the body weight of each mouse [1]: no significant change
- Growth inhibition rate of the Herceptin-resistant tumor, compared with Herceptin group [14]: higher
- T/C [15]: 84%
- TGI [15]: 16%
- Tumor volume (52 days) [15]: 443 ± 18 mm^3
- IC50 [18]: 11.8 µM

- IC50 [21]: 98 µM
- IC50 [22]: 127 µM
- IC50 [23]: 77 µM
- IC50 [27]: 47.1 µM
- IC50 [28]: 74.6 µM
Structure (SMILES): O=C(c1cc(Cc2n[nH]c(=O)c3ccccc23)ccc1F)N1CCN(C(=O)C2CC2)CC1 [olaparib]
- Change in the body weight of each mouse [1]: no significant change
- T/C [15]: 76%
- TGI [15]: 24%
- Tumor volume (52 days) [15]: 402 ± 25 mm^3
- IC50 [24]: 520 µM
- IC50 [25]: 186 µM
- IC50 [26]: 352 µM
